Patent US10611730B2, “Benzimidazolone and benzothiazolone compounds and their use as AMPA receptor modulators” (Janssen Pharmaceutica NV, priority 2015, dated 2020)

What follows are molecules tested against TARP γ8 dependent AMPA receptor (GluA1o-g8 fusion channel) (Homo sapiens (Human), UniProt P42261+Q8WXS5) (assay: Calcium flux assay (FLIPR), HEK293 cells expressing GRIA1o-CACNG8 fusion). Settings: inhibition of calcium flux after 15 μM glutamate.
Sequence of TARP γ8 dependent AMPA receptor (GluA1o-g8 fusion channel) (P42261 other isoform, or with tags, fused parts or gaps): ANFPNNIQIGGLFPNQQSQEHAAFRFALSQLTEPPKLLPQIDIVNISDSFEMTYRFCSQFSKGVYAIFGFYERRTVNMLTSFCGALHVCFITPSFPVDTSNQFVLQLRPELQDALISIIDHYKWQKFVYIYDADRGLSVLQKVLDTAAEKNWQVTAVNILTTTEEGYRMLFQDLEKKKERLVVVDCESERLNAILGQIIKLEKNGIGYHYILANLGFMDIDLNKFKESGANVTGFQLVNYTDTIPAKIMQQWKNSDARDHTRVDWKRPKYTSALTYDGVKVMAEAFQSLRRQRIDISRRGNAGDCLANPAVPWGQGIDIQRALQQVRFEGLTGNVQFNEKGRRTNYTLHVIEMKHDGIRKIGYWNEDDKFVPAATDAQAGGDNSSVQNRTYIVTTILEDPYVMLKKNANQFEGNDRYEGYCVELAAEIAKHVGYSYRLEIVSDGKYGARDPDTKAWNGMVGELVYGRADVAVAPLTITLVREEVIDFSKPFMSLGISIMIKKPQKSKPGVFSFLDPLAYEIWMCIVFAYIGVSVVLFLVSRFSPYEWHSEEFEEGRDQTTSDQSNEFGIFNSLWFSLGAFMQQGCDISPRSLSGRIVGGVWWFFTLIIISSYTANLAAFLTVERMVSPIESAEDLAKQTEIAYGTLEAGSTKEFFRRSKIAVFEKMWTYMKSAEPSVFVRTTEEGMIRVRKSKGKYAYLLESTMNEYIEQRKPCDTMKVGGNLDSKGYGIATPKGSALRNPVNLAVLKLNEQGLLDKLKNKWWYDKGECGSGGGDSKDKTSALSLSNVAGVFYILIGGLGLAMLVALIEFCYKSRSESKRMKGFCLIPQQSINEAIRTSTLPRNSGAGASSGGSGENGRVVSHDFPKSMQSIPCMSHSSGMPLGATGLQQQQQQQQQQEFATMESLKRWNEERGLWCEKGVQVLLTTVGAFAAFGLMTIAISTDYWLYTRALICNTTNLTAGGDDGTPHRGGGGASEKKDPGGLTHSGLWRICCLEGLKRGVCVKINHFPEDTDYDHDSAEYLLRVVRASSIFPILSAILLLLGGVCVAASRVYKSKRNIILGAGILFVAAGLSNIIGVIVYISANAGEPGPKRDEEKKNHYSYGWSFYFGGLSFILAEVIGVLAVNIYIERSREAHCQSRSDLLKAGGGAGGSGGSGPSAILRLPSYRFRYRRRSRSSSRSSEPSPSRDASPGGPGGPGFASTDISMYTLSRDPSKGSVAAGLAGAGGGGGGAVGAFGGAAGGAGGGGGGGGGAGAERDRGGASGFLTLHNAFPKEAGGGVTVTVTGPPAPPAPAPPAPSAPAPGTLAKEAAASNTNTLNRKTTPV
Assay type: cell-based
Source text: This assay was used to test compounds for their ability to inhibit TARP γ8 dependent AMPA receptor activity.
An in vitro assay was used to determine the potency of test compounds as inhibitors of the glutamate response of the channel formed by GluA1o-g8. To ensure a 1:1 stoichiometry of GluA1o and g8 subunits in the expressed channel, a fusion of the cDNAs for GRIA1o and CACNG8 was used. […] A clonal cell line in HEK293 cells stably expressing this construct, with a geneticin selection marker, was generated for use in this assay. Cell expressing the GRIAlo-CACNG8 fusion construct were grown in a monolayer in 96- or 384-well microtiter plates. […] The cells were then loaded with a calcium-sensitive dye (Calcium-5 or Calcium-6, Molecular Devices) and the test compounds at a range of concentrations.
The fluorescence in each well was normalized to the fluorescence of negative and positive control wells. […] The responses to glutamate as functions of the test compound concentrations were fitted to a four-parameter logistic function. The fitted parameter corresponding to the midpoint was taken to be the potency of inhibition of the compound.
For `O=c1[nH]c2ccc(-c3c(Cl)cccc3OC(F)(F)F)cc2s1` [Example 76, 6-[2-Chloro-6-(trifluoromethoxy)phenyl]-3H-1,3-benzothiazol-2-one], the “GluR1-γ8 pIC50” value was 8.6.

Same assay, conditions: inhibition of calcium flux after 15 μM glutamate, read-out: GluR1-γ8 pIC50 (converted)
`N#Cc1cccc(Cl)c1-c1ccc2[nH]c(=O)[nH]c2c1` [Example 56, 3-Chloro-2-(2-oxo-1,3-dihydrobenzimidazol-5-yl)benzonitrile] gave an IC50 of 0.631 µM. For `Cc1cccc(C(F)(F)F)c1-c1ccc2[nH]c(=O)[nH]c2c1` [Example 57, 5-[2-Methyl-6-(trifluoromethyl)phenyl]-1,3-dihydrobenzimidazol-2-one], the IC50 was 0.631 µM. `O=c1[nH]c2ccc(-c3cccc4cccnc34)cc2[nH]1` [Example 58, 5-(8-Quinolyl)-1,3-dihydrobenzimidazol-2-one] gave an IC50 of 3.16 µM. With `O=c1[nH]c2ccc(-c3ccccc3Cc3ccccc3)cc2[nH]1` [Example 59, 5-(2-Benzylphenyl)-1,3-dihydrobenzimidazol-2-one] the IC50 was 0.316 µM. Work on `Cc1c(-c2ccc3[nH]c(=O)[nH]c3c2)cccc1C(F)(F)F` [Example 60, 5-[2-Methyl-3-(trifluoromethyl)phenyl]-1,3-dihydrobenzimidazol-2-one] yielded an IC50 of 0.0794 µM. In the case of `O=c1[nH]c2ccc(-c3cccc(C(F)(F)F)c3Cl)cc2[nH]1` [Example 61, 5-[2-Chloro-3-(trifluoromethyl)phenyl]-1,3-dihydrobenzimidazol-2-one], the IC50 was 0.0398 µM. `CC(C)Oc1cccc(-c2ccc3[nH]c(=O)[nH]c3c2)c1C#N` [Example 62, 2-Isopropoxy-6-(2-oxo-1,3-dihydrobenzimidazol-5-yl)benzonitrile] was tested, and the IC50 was 0.2 µM. In the case of `N#Cc1c(Br)cccc1-c1ccc2[nH]c(=O)[nH]c2c1` [Example 63, 2-Bromo-6-(2-oxo-1,3-dihydrobenzimidazol-5-yl)benzonitrile], the IC50 was 0.631 µM. `Cc1cccc(-c2ccc3[nH]c(=O)[nH]c3c2)c1Cl` [Example 64, 5-(2-Chloro-3-methyl-phenyl)-1,3-dihydrobenzimidazol-2-one] was tested, and the IC50 was 0.1 µM. In the case of `N#Cc1c(-c2ccc3[nH]c(=O)[nH]c3c2)cccc1C(F)(F)F` [Example 65, 2-(2-Oxo-1,3-dihydrobenzimidazol-5-yl)-6-(trifluoromethyl)benzonitrile], the IC50 was 1.26 µM. Molecule `Cc1c(C#N)cccc1-c1ccc2[nH]c(=O)[nH]c2c1` [Example 67, 2-Methyl-3-(2-oxo-1,3-dihydrobenzimidazol-5-yl)benzonitrile] has an IC50 of 0.251 µM. `N#Cc1cccc(-c2ccc3[nH]c(=O)[nH]c3c2)c1Cl` [Example 68, 2-Chloro-3-(2-oxo-1,3-dihydrobenzimidazol-5-yl)benzonitrile] was tested, and the IC50 was 0.316 µM. `O=c1[nH]c2ccc(-c3c(Cl)cncc3Cl)cc2[nH]1` [Example 69, 5-(3,5-Dichloro-4-pyridyl)-1,3-dihydrobenzimidazol-2-one] gave an IC50 of 0.501 µM. `Cc1ccnc(Cl)c1-c1ccc2[nH]c(=O)[nH]c2c1` [Example 70, 5-(2-Chloro-4-methyl-3-pyridyl)-1,3-dihydrobenzimidazol-2-one] gave an IC50 of 0.794 µM. For `Cc1nc(-c2cccc(-c3ccc4[nH]c(=O)[nH]c4c3)c2C)no1` [Example 71, 5-[2-Methyl-3-(5-methyl-1,2,4-oxadiazol-3-yl)phenyl]-1,3-dihydrobenzimidazol-2-one], the IC50 was 0.0501 µM. In the case of `Cc1nc(-c2cccc(-c3ccc4[nH]c(=O)sc4c3)c2C)no1` [Example 72, 6-[2-Methyl-3-(5-methyl-1,2,4-oxadiazol-3-yl)phenyl]-3H-1,3-benzothiazol-2-one], the IC50 was 0.794 µM. In the case of `Cc1c(-c2ccc3[nH]c(=O)[nH]c3c2)cccc1-c1noc(C2CC2)n1` [Example 73, 5-[3-(5-Cyclopropyl-1,2,4-oxadiazol-3-yl)-2-methyl-phenyl]-1,3-dihydrobenzimidazol-2-one], the IC50 was 0.0316 µM. In the case of `Cc1c(-c2ccc3[nH]c(=O)sc3c2)cccc1-c1noc(C2CC2)n1` [Example 74, 6-[3-(5-Cyclopropyl-1,2,4-oxadiazol-3-yl)-2-methyl-phenyl]-3H-1,3-benzothiazol-2-one], the IC50 was 3.98 µM. In the case of `Cc1c(-c2ccc3[nH]c(=O)[nH]c3c2)cccc1-c1noc(-c2ccncc2)n1` [Example 75, 5-[2-Methyl-3-[5-(4-pyridyl)-1,2,4-oxadiazol-3-yl]phenyl]-1,3-dihydrobenzimidazol-2-one], the IC50 was 0.02 µM. Work on `COc1cccc(OC(C)C)c1-c1ccc2[nH]c(=O)sc2c1` [Example 77, 6-(2-Isopropoxy-6-methoxy-phenyl)-3H-1,3-benzothiazol-2-one] yielded an IC50 of 0.0126 µM. For `CNC(=O)Cc1c(-c2ccc3[nH]c(=O)[nH]c3c2)cccc1C(F)(F)F` [Example 78, N-Methyl-2-[2-(2-oxo-1,3-dihydrobenzimidazol-5-yl)-6-(trifluoromethyl)phenyl] acetamide], the IC50 was 0.2 µM. `Cc1c(C(=O)Nc2ccccc2)cccc1-c1ccc2[nH]c(=O)[nH]c2c1` [Example 79, 2-Methyl-3-(2-oxo-1,3-dihydrobenzimidazol-5-yl)-N-phenyl-benzamide] gave an IC50 of 0.794 µM. `Cc1c(C(=O)NC2CC2)cccc1-c1ccc2[nH]c(=O)[nH]c2c1` [Example 80, N-Cyclopropyl-2-methyl-3-(2-oxo-1,3-dihydrobenzimidazol-5-yl)benzamide] was tested, and the IC50 was 3.98 µM. Molecule `Cc1c(C(=O)N(C)C)cccc1-c1ccc2[nH]c(=O)[nH]c2c1` [Example 81, N,N,2-Trimethyl-3-(2-oxo-1,3-dihydrobenzimidazol-5-yl)benzamide] has an IC50 of 3.16 µM. With `Cc1c(C(=O)N2CCOCC2)cccc1-c1ccc2[nH]c(=O)[nH]c2c1` [Example 82, 5-[2-Methyl-3-(morpholine-4-carbonyl)phenyl]-1,3-dihydrobenzimidazol-2-one] the IC50 was 5.01 µM. `O=C(Nc1ccccc1)c1ccc(Cl)c(-c2ccc3[nH]c(=O)[nH]c3c2)c1` [Example 83, 4-Chloro-3-(2-oxo-1,3-dihydrobenzimidazol-5-yl)-N-phenyl-benzamide] showed an IC50 of 2.51 µM. With `O=C(c1ccc(Cl)c(-c2ccc3[nH]c(=O)[nH]c3c2)c1)N1CCCC1` [Example 84, 5-[2-Chloro-5-(pyrrolidine-1-carbonyl)phenyl]-1,3-dihydrobenzimidazol-2-one] the IC50 was 7.94 µM. `O=C(c1ccc(Cl)c(-c2ccc3[nH]c(=O)[nH]c3c2)c1)N1CCCCC1` [Example 85, 5-[2-Chloro-5-(piperidine-1-carbonyl)phenyl]-1,3-dihydrobenzimidazol-2-one] was tested, and the IC50 was 5.01 µM. Work on `O=c1[nH]c2ccc(-c3c(Cl)cccc3NCc3ccco3)cc2[nH]1` [Example 86, 5-[2-Chloro-6-(2-furylmethylamino)phenyl]-1,3-dihydrobenzimidazol-2-one] yielded an IC50 of 0.158 µM. Molecule `O=c1[nH]c2ccc(-c3c(Cl)cccc3NCc3ccoc3)cc2[nH]1` [Example 87, 5-[2-Chloro-6-(3-furylmethylamino)phenyl]-1,3-dihydrobenzimidazol-2-one] has an IC50 of 0.126 µM. `CC(C)Oc1cccc(OC(F)(F)F)c1-c1ccc2[nH]c(=O)[nH]c2c1` [Example 88, 5-[2-Isopropoxy-6-(trifluoromethoxy)phenyl]-1,3-dihydrobenzimidazol-2-one] gave an IC50 of 0.00794 µM. Work on `O=c1[nH]c2ccc(-c3c(OCC4CC4)cccc3OC(F)(F)F)cc2[nH]1` [Example 89, 5-[2-(Cyclopropylmethoxy)-6-(trifluoromethoxy)phenyl]-1,3-dihydrobenzimidazol-2-one] yielded an IC50 of 0.00398 µM. For `O=c1[nH]c2ccc(-c3c(Cl)cccc3OC3CC3)cc2[nH]1` [Example 90, 5-[2-Chloro-6-(cyclopropoxy)phenyl]-1,3-dihydrobenzimidazol-2-one], the IC50 was 0.251 µM. `CC(C)Oc1cccc(Cl)c1-c1ccc2[nH]c(=O)[nH]c2c1` [Example 91, 5-(2-Chloro-6-isopropoxy-phenyl)-1,3-dihydrobenzimidazol-2-one] was tested, and the IC50 was 0.0794 µM. In the case of `O=c1[nH]c2ccc(-c3c(Cl)cccc3OCC3CC3)cc2[nH]1` [Example 92, 5-[2-Chloro-6-(cyclopropylmethoxy)phenyl]-1,3-dihydrobenzimidazol-2-one], the IC50 was 0.01 µM. `O=c1[nH]c2ccc(-c3c(Cl)cccc3OC(F)F)cc2[nH]1` [Example 94, 5-[2-Chloro-6-(difluoromethoxy)phenyl]-1,3-dihydrobenzimidazol-2-one] gave an IC50 of 0.0316 µM. Molecule `O=c1[nH]c2ccc(-c3c(Cl)cccc3OCC(F)(F)F)cc2[nH]1` [Example 95, 5-[2-Chloro-6-(2,2,2-trifluoroethoxy)phenyl]-1,3-dihydrobenzimidazol-2-one] has an IC50 of 0.0501 µM. For `O=c1[nH]c2ccc(-c3c(Cl)cccc3OCC(F)F)cc2[nH]1` [Example 96, 5-[2-Chloro-6-(2,2-difluoroethoxy)phenyl]-1,3-dihydrobenzimidazol-2-one], the IC50 was 0.0631 µM. `N#CCOc1cccc(Cl)c1-c1ccc2[nH]c(=O)[nH]c2c1` [Example 97, 2-[3-Chloro-2-(2-oxo-1,3-dihydrobenzimidazol-5-yl)phenoxy]acetonitrile] gave an IC50 of 0.316 µM. For `CC(C)(C)COc1cccc(Cl)c1-c1ccc2[nH]c(=O)[nH]c2c1` [Example 98, 5-[2-Chloro-6-(2,2-dimethylpropoxy)phenyl]-1,3-dihydrobenzimidazol-2-one], the IC50 was 0.0501 µM. With `O=c1[nH]c2ccc(-c3c(Cl)cccc3OCc3ccccc3)cc2[nH]1` [Example 99, 5-(2-Benzyloxy-6-chloro-phenyl)-1,3-dihydrobenzimidazol-2-one] the IC50 was 0.0631 µM. In the case of `CC(C)(C)OC(=O)N1CC(Oc2cccc(Cl)c2-c2ccc3[nH]c(=O)[nH]c3c2)C1` [Example 100, tert-Butyl 3-[3-chloro-2-(2-oxo-1,3-dihydrobenzimidazol-5-yl)phenoxy]azetidine-1-carboxylate], the IC50 was 0.316 µM.
